Measurements published in patent publication US4330549A, “Coumarins connected via an oxyalkyl group with a piperidine ring having anti-allergic action” (Boehringer Mannheim GmbH, priority 1979, dated 1982).

Each compound was assayed on passive cutaneous anaphylactic reaction (PCA) (assay: Inhibition of passive cutaneous anaphylaxis (PCA) in rats, reaginic antibody to egg albumin). Conditions: Rattus norvegicus, po; dose 3.0 mg/kg (table head: p.o.; method b438: intravenously immediately before the antigen); rats, 6 animals per dose.
Assay type: in vivo, rat
For Cc1c(C)c2ccc(OCCCN3CCC(NC(=O)c4ccc(F)cc4)CC3)cc2oc1=O [Example 2a, 3,4-Dimethyl-7-{3-[4-(4-fluoro-benzamido)-piperidino]-propoxy}-coumarin], the inhibition in vivo at 3 mg/kg was 59%. Compound Cc1cc(=O)oc2ccc(OCCCN3CCC(NC(=O)c4ccccc4)CC3)cc12 [Example 4a, 6-[3-(4-Benzamido-piperidino)-propoxy]-4-methyl-coumarin] has an inhibition in vivo at 3 mg/kg of 61%. Cc1cc(=O)[nH]c2ccc(OCCCN3CCC(NC(=O)c4ccccc4)CC3)cc12 [Example 8, 6-[3-(4-Benzamido-piperidino)-propoxy]-4-methyl-2-oxo-1,2-dihydroquinoline] was tested, and the inhibition in vivo at 3 mg/kg was 34%. Cc1c(C)c2ccc(OCCCN3CCC(NC(=O)c4ccc(C(C)(C)C)cc4)CC3)cc2oc1=O [Example 2d, 7-{3-[4-(4-t.-Butyl-benzamido)-piperidino]-propoxy}-3,4-dimethyl-coumarin] gave an inhibition in vivo at 3 mg/kg of 52%. Work on Cc1c(C)c2ccc(OCCCN3CCC(NC(=O)c4ccccc4)CC3)cc2oc1=O [Example 1, 7-[3-(4-Benzamido-piperidino)-propoxy]-3,4-dimethylcoumarin] yielded an inhibition in vivo at 3 mg/kg of 50%. Cc1c(C)c2ccc(OCCCN3CCC(NC(=O)c4cccs4)CC3)cc2oc1=O [Example 7b] was tested, and the inhibition in vivo at 3 mg/kg was 23%. Compound COc1ccc(C(=O)NC2CCN(CCCOc3ccc4c(C)c(C)c(=O)oc4c3)CC2)cc1 [Example 2b, 3,4-Dimethyl-7-{3-[4-(4-methoxy-benzamido)-piperidino]-propoxy}-coumarin] has an inhibition in vivo at 3 mg/kg of 36%. With Cc1cc(=O)n(C)c2ccc(OCCCN3CCC(NC(=O)c4ccccc4)CC3)cc12 [Example 10, 6-[3-(4-Benzamido-piperidino)-propoxy]-1,4-dimethyl-2-oxo-1,2-dihydroquinoline] the inhibition in vivo at 3 mg/kg was 54%. Cc1c(C)c2ccc(OCCCN3CCC(NC(=O)c4ccc(Cl)cc4)CC3)cc2oc1=O [Example 6, 7-{3-[4-(4-Chlorobenzamido)-piperidino]-propoxy}-3,4-dimethylcoumarin] was tested, and the inhibition in vivo at 3 mg/kg was 30%.

Same assay, conditions: Rattus norvegicus, po; dose 100.0 mg/kg (table head: p.o.; method b438: intravenously immediately before the antigen); rats, 6 animals per dose; comparison compound
CCN(CC)C(=O)N1CCN(C)CC1 [Diethylcarbamazin, 1-diethylcarbamoyl-4-methylpiperazine, reference compound] was tested, and the inhibition in vivo at 100 mg/kg was 47%.

Same assay, conditions: relative to 7-[3-(4-benzamido-piperidino)-propoxy]-3,4-dimethylcoumarin (Example 1); PCA test in vivo in rats
For CCN(CC)C(=O)N1CCN(C)CC1 [Diethylcarbamazin, 1-diethylcarbamoyl-4-methylpiperazine, reference compound], the “times more substance that must be used than of 7-[3-(4-benzamido-piperidino)-propoxy]-3,4-dimethylcoumarin for comparable inhibition of the passive cutaneous anaphylactoid reaction” value was “about 40 times”.
